# Assay results as given in PubChem BioAssay AID2060604 (Molecular Pharmacology Branch, DTP, NCI, 2025).
# Test system: 379773-124-R-J2-PDC complex spheroids, viability % test/control
# Assay: Anticancer human tumor 379773-124-R-J2-PDC patient-derived endometrial carcinoma cell line growth inhibition [CLK]
# Settings: for IC50: curve of first compound; for viability, T/C: stronger effect = lower value
# Outline: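 Patient-derived tumor cells grown as complex spheroids with HUVEC endothelial cells and mesenchymal stem cells, treated with drug combinations. Concentrations descend in half-log steps from near clinical Cmax, or from 10 microM if Cmax unknown.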
# 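Further: compound exposure lasted seven days before the viability readout.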
# 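Wherever viability, T/C is given: 100% = DMSO vehicle control wells.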
smiles,measurement,setting,value
NC(=O)C(=Cn1cnc(-c2cc(C(F)(F)F)cc(C(F)(F)F)c2)n1)c1cncnc1 + CNC(=O)c1ccc(Nc2nc(OC3CCCC3)c3c(-c4ccc5nc(C)oc5c4)c[nH]c3n2)c(OC)c1,IC50,second compound 0.0316 µM,38.6 nM
same,IC50,second compound 0.1 µM,< 9.49 nM
same,IC50,second compound 0.316 µM,< 9.49 nM
same,IC50,second compound 1 µM,< 9.49 nM
same,IC50,second compound 3.16 µM,< 9.49 nM
same,IC50,second compound 10 µM,< 9.49 nM
same,"viability, T/C","second compound 0.0316 µM, first compound 0.00949 µM",72.8%
same,"viability, T/C","second compound 0.0316 µM, first compound 0.03 µM",57.6%
same,"viability, T/C","second compound 0.0316 µM, first compound 0.0949 µM",25.4%
same,"viability, T/C","second compound 0.0316 µM, first compound 0.3 µM",12.7%
same,"viability, T/C","second compound 0.0316 µM, first compound 0.949 µM",7.15%
same,"viability, T/C","second compound 0.0316 µM, first compound 3 µM",2.1%
same,"viability, T/C","second compound 0.1 µM, first compound 0.00949 µM",32.3%
same,"viability, T/C","second compound 0.1 µM, first compound 0.03 µM",29.7%
same,"viability, T/C","second compound 0.1 µM, first compound 0.0949 µM",21.4%
same,"viability, T/C","second compound 0.1 µM, first compound 0.3 µM",12.4%
same,"viability, T/C","second compound 0.1 µM, first compound 0.949 µM",6.65%
same,"viability, T/C","second compound 0.1 µM, first compound 3 µM",2.59%
same,"viability, T/C","second compound 0.316 µM, first compound 0.00949 µM",36.7%
same,"viability, T/C","second compound 0.316 µM, first compound 0.03 µM",32.8%
same,"viability, T/C","second compound 0.316 µM, first compound 0.0949 µM",23.8%
same,"viability, T/C","second compound 0.316 µM, first compound 0.3 µM",12%
same,"viability, T/C","second compound 0.316 µM, first compound 0.949 µM",5.08%
same,"viability, T/C","second compound 0.316 µM, first compound 3 µM",1.7%
same,"viability, T/C","second compound 1 µM, first compound 0.00949 µM",31.9%
same,"viability, T/C","second compound 1 µM, first compound 0.03 µM",32.6%
same,"viability, T/C","second compound 1 µM, first compound 0.0949 µM",20.9%
same,"viability, T/C","second compound 1 µM, first compound 0.3 µM",10.4%
same,"viability, T/C","second compound 1 µM, first compound 0.949 µM",3.69%
same,"viability, T/C","second compound 1 µM, first compound 3 µM",0.49%
same,"viability, T/C","second compound 3.16 µM, first compound 0.00949 µM",30.1%
same,"viability, T/C","second compound 3.16 µM, first compound 0.03 µM",34.9%
same,"viability, T/C","second compound 3.16 µM, first compound 0.0949 µM",18.2%
same,"viability, T/C","second compound 3.16 µM, first compound 0.3 µM",7.24%
same,"viability, T/C","second compound 3.16 µM, first compound 0.949 µM",2.43%
same,"viability, T/C","second compound 3.16 µM, first compound 3 µM",0.24%
same,"viability, T/C","second compound 10 µM, first compound 0.00949 µM",37.7%
same,"viability, T/C","second compound 10 µM, first compound 0.03 µM",26.8%
same,"viability, T/C","second compound 10 µM, first compound 0.0949 µM",14.3%
same,"viability, T/C","second compound 10 µM, first compound 0.3 µM",7.07%
same,"viability, T/C","second compound 10 µM, first compound 0.949 µM",2.12%
same,"viability, T/C","second compound 10 µM, first compound 3 µM",0.82%
Nc1ccccc1NC(=O)c1ccc(CNC(=O)OCc2cccnc2)cc1 + CNC(=O)c1ccc(Nc2nc(OC3CCCC3)c3c(-c4ccc5nc(C)oc5c4)c[nH]c3n2)c(OC)c1,IC50,second compound 0.0316 µM,1820 nM
same,IC50,second compound 0.1 µM,< 31.6 nM
same,IC50,second compound 0.316 µM,< 31.6 nM
same,IC50,second compound 1 µM,< 31.6 nM
same,IC50,second compound 3.16 µM,< 31.6 nM
same,IC50,second compound 10 µM,< 31.6 nM
same,"viability, T/C","second compound 0.0316 µM, first compound 0.0316 µM",87.7%
same,"viability, T/C","second compound 0.0316 µM, first compound 0.1 µM",81.9%
same,"viability, T/C","second compound 0.0316 µM, first compound 0.316 µM",95.7%
same,"viability, T/C","second compound 0.0316 µM, first compound 1 µM",70.6%
same,"viability, T/C","second compound 0.0316 µM, first compound 3.16 µM",29.8%
same,"viability, T/C","second compound 0.0316 µM, first compound 10 µM",7.39%
same,"viability, T/C","second compound 0.1 µM, first compound 0.0316 µM",32.2%
same,"viability, T/C","second compound 0.1 µM, first compound 0.1 µM",40.1%
same,"viability, T/C","second compound 0.1 µM, first compound 0.316 µM",36.5%
same,"viability, T/C","second compound 0.1 µM, first compound 1 µM",27.8%
same,"viability, T/C","second compound 0.1 µM, first compound 3.16 µM",11.5%
same,"viability, T/C","second compound 0.1 µM, first compound 10 µM",5.65%
same,"viability, T/C","second compound 0.316 µM, first compound 0.0316 µM",44.5%
same,"viability, T/C","second compound 0.316 µM, first compound 0.1 µM",40.2%
same,"viability, T/C","second compound 0.316 µM, first compound 0.316 µM",27.7%
same,"viability, T/C","second compound 0.316 µM, first compound 1 µM",25.4%
same,"viability, T/C","second compound 0.316 µM, first compound 3.16 µM",15.3%
same,"viability, T/C","second compound 0.316 µM, first compound 10 µM",4.66%
same,"viability, T/C","second compound 1 µM, first compound 0.0316 µM",39.1%
same,"viability, T/C","second compound 1 µM, first compound 0.1 µM",29.2%
same,"viability, T/C","second compound 1 µM, first compound 0.316 µM",28.4%
same,"viability, T/C","second compound 1 µM, first compound 1 µM",20.4%
same,"viability, T/C","second compound 1 µM, first compound 3.16 µM",14.3%
same,"viability, T/C","second compound 1 µM, first compound 10 µM",3.91%
same,"viability, T/C","second compound 3.16 µM, first compound 0.0316 µM",31.8%
same,"viability, T/C","second compound 3.16 µM, first compound 0.1 µM",30.1%
same,"viability, T/C","second compound 3.16 µM, first compound 0.316 µM",25.1%
same,"viability, T/C","second compound 3.16 µM, first compound 1 µM",21.4%
same,"viability, T/C","second compound 3.16 µM, first compound 3.16 µM",12.9%
same,"viability, T/C","second compound 3.16 µM, first compound 10 µM",3.52%
same,"viability, T/C","second compound 10 µM, first compound 0.0316 µM",38.7%
same,"viability, T/C","second compound 10 µM, first compound 0.1 µM",30.2%
same,"viability, T/C","second compound 10 µM, first compound 0.316 µM",25.2%
same,"viability, T/C","second compound 10 µM, first compound 1 µM",17.3%
same,"viability, T/C","second compound 10 µM, first compound 3.16 µM",12.2%
same,"viability, T/C","second compound 10 µM, first compound 10 µM",2.97%
